{"source": "patent US20120029187A1", "about": "“HALOALKYLSULFONANILIDE DERIVATIVE” (Nissan Chemical Industries, Ltd., priority 2009, published 2012)", "assay_type_in_all_cases": "in vivo", "key": {"[1]": {"tested_on": "common ragweed", "assay": "Test Example 4: herbicidal effect in foliage treatment", "settings": "dose 6.3 g/a, three weeks after application", "procedure,_shortened": "(§1)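 Seeds were spot-sown in boxes of sterilized diluvial soil and raised in a greenhouse (25 to 30° C) for 14 days before a single foliar application. Compounds were applied as emulsifiable concentrates diluted with water, at predetermined doses in g/a. Injury was graded three weeks post-spray.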"}, "[2]": {"tested_on": "beadstraw", "assay": "Test Example 4: herbicidal effect in foliage treatment", "settings": "dose 6.3 g/a, three weeks after application", "procedure,_shortened": "as §1"}, "[3]": {"tested_on": "redroot pigweed", "assay": "Test Example 4: herbicidal effect in foliage treatment", "settings": "dose 6.3 g/a, three weeks after application", "procedure,_shortened": "as §1"}, "[4]": {"tested_on": "common chickweed", "assay": "Test Example 4: herbicidal effect in foliage treatment", "settings": "dose 6.3 g/a, three weeks after application", "procedure,_shortened": "as §1"}, "[5]": {"tested_on": "wild oat", "assay": "Test Example 4: herbicidal effect in foliage treatment", "settings": "dose 6.3 g/a, three weeks after application", "procedure,_shortened": "as §1"}, "[6]": {"tested_on": "barnyardgrass", "assay": "Test Example 4: herbicidal effect in foliage treatment", "settings": "dose 6.3 g/a, three weeks after application", "procedure,_shortened": "as §1"}, "[7]": {"tested_on": "velvetleaf", "assay": "Test Example 4: herbicidal effect in foliage treatment", "settings": "dose 6.3 g/a, three weeks after application", "procedure,_shortened": "as §1"}, "[8]": {"tested_on": "common lambsquater", "assay": "Test Example 4: herbicidal effect in foliage treatment", "settings": "dose 6.3 g/a, three weeks after application", "procedure,_shortened": "as §1"}, "[9]": {"tested_on": "water foxtail", "assay": "Test Example 4: herbicidal effect in foliage treatment", "settings": "dose 6.3 g/a, three weeks after application", "procedure,_shortened": "as §1"}, "[10]": {"tested_on": "giant foxtail", "assay": "Test Example 4: herbicidal effect in foliage treatment", "settings": "dose 6.3 g/a, three weeks after application", "procedure,_shortened": "as §1"}, "[11]": {"tested_on": "Italian ryegrass", "assay": "Test Example 4: herbicidal effect in foliage treatment", "settings": "dose 6.3 g/a, three weeks after application", "procedure,_shortened": "as §1"}, "[12]": {"tested_on": "posumbu knotweed", "assay": "Test Example 4: herbicidal effect in foliage treatment", "settings": "dose 6.3 g/a, three weeks after application", "procedure,_shortened": "as §1"}, "[13]": {"tested_on": "large crabgrass", "assay": "Test Example 4: herbicidal effect in foliage treatment", "settings": "dose 6.3 g/a, three weeks after application", "procedure,_shortened": "as §1"}, "[14]": {"tested_on": "bulrush", "assay": "Test Example 1: herbicidal effects in preemergence treatment under submerged conditions", "settings": "dose 2.52 g/a", "procedure,_shortened": "(§2)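 Score 0–5 by mortality (5: ≥90%; 0: <5%), read 3 weeks post-application. Paddy-type cups: alluvial soil under 4 cm water, weeds seeded plus transplanted 2.5-leaf rice; diluted EC dosed onto water surface same day as sowing, g/a basis; greenhouse 25 to 30° C.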"}, "[15]": {"tested_on": "barnyardgrass", "assay": "Test Example 1: herbicidal effects in preemergence treatment under submerged conditions", "settings": "dose 2.52 g/a", "procedure,_shortened": "as §2"}, "[16]": {"tested_on": "ducksalad", "assay": "Test Example 1: herbicidal effects in preemergence treatment under submerged conditions", "settings": "dose 2.52 g/a", "procedure,_shortened": "as §2"}, "[17]": {"tested_on": "barnyardgrass", "assay": "Comparative Example 1: herbicidal effects in preemergence treatment on barnyardgrass under submerged conditions", "settings": "applied to water surface on the day of seeding, three weeks after application", "source_text": "Comparative Example 1 Test on the Herbicidal Effects in Preemergence Treatment on Barnyardgrass Under Submerged Conditions Alluvial soil was put in 1/30000-are styrol cups and admixed with water so that it was submerged at a depth of 4 cm. In each cup, seeds of barnyardgrass were sown, and on the same day as the seeding, emulsifiable concentrates containing compounds of the present invention formulated in accordance with Formulation Example 2 were applied to the water surfaces at predetermined doses after diluted with water. The cups were placed in a greenhouse at 25 to 30° C. to grow the plants. Three weeks after the application, the herbicidal effects against barnyardgrass were determined on the following evaluation scale. The symbol A in the table means barnyardgrass."}, "[18]": {"tested_on": "bulrush", "assay": "Test Example 2: herbicidal effects during the vegetation period under submerged conditions", "settings": "treatment during the vegetation period under submerged conditions; dose 2.52 g/a", "procedure,_shortened": "(§3)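 Barnyardgrass, bulrush and ducksalad were co-sown in alluvial soil flooded to 4 cm and grown in a greenhouse at 25 to 30° C. At the 1- or 2-leaf stage, water-diluted emulsifiable concentrates went onto the water surface at set doses (g/a). Herbicidal effect was scored three weeks later on a graded scale.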"}, "[19]": {"tested_on": "barnyardgrass", "assay": "Test Example 2: herbicidal effects during the vegetation period under submerged conditions", "settings": "treatment during the vegetation period under submerged conditions; dose 2.52 g/a", "procedure,_shortened": "as §3"}, "[20]": {"tested_on": "ducksalad", "assay": "Test Example 2: herbicidal effects during the vegetation period under submerged conditions", "settings": "treatment during the vegetation period under submerged conditions; dose 2.52 g/a", "procedure,_shortened": "as §3"}, "[21]": {"tested_on": "barnyardgrass", "assay": "Comparative Example 2: herbicidal effects on barnyardgrass during the vegetation period under submerged conditions", "settings": "applied to water surface at the 2- or 2.5-leaf stage, three weeks after application", "method": "Comparative Example 2 Test on the Herbicidal Effects on Barnyardgrass During the Vegetation Period Under Submerged Conditions Alluvial soil was put in 1/30000-are styrol cups and admixed with water so that it was submerged at a depth of 4 cm. In each cup, seeds of barnyardgrass were sown, and the cups were placed in a greenhouse at 25 to 30° C. to grow the plants. When the barnyardgrass reached the 2- or 2.5-leaf stage, emulsifiable concentrates containing compounds of the present invention and the comparative compounds formulated in accordance with Formulation Example 2 were applied to the water surfaces at predetermined doses after diluted with water. Three weeks after the application, the herbicidal effects were determined on the same evaluation scale as in Test Example 1. The symbol A in the table is the same as defined above."}}}
{"smiles": "CC(C)COC(=O)N(c1ccccc1CN1COCCC1=O)S(=O)(=O)C(F)(F)F", "note": "[II-3]", "values": [{"measurement": "J: common ragweed, herbicidal effect", "setting": "[1]", "result": "2 (mortality of at least 20% and less than 40%)"}, {"measurement": "O: beadstraw, herbicidal effect", "setting": "[2]", "result": "3 (mortality of at least 40% and less than 70%)"}, {"measurement": "K: redroot pigweed, herbicidal effect", "setting": "[3]", "result": "0 (mortality of less than 5% (almost ineffective))"}, {"measurement": "N: common chickweed, herbicidal effect", "setting": "[4]", "result": "3 (mortality of at least 40% and less than 70%)"}, {"measurement": "F: wild oat, herbicidal effect", "setting": "[5]", "result": "0 (mortality of less than 5% (almost ineffective))"}, {"measurement": "A: barnyardgrass, herbicidal effect", "setting": "[6]", "result": "5 (mortality of 90% or above (nearly complete death))"}, {"measurement": "I: velvetleaf, herbicidal effect", "setting": "[7]", "result": "5 (mortality of 90% or above (nearly complete death))"}, {"measurement": "L: common lambsquater, herbicidal effect", "setting": "[8]", "result": "4 (mortality of at least 70% and less than 90%)"}, {"measurement": "G: water foxtail, herbicidal effect", "setting": "[9]", "result": "5 (mortality of 90% or above (nearly complete death))"}, {"measurement": "E: giant foxtail, herbicidal effect", "setting": "[10]", "result": "5 (mortality of 90% or above (nearly complete death))"}, {"measurement": "H: Italian ryegrass, herbicidal effect", "setting": "[11]", "result": "3 (mortality of at least 40% and less than 70%)"}, {"measurement": "M: posumbu knotweed, herbicidal effect", "setting": "[12]", "result": "0 (mortality of less than 5% (almost ineffective))"}, {"measurement": "D: large crabgrass, herbicidal effect", "setting": "[13]", "result": "5 (mortality of 90% or above (nearly complete death))"}, {"measurement": "B: bulrush, herbicidal effect (evaluation scale 0-5)", "setting": "[14]", "result": "5 (mortality of 90% or above (nearly complete death))"}, {"measurement": "A: barnyardgrass, herbicidal effect (evaluation scale 0-5)", "setting": "[15]", "result": "5 (mortality of 90% or above (nearly complete death))"}, {"measurement": "C: ducksalad, herbicidal effect (evaluation scale 0-5)", "setting": "[16]", "result": "5 (mortality of 90% or above (nearly complete death))"}, {"measurement": "herbicidal effect, A (barnyardgrass)", "setting": "[17]; dose 0.16 g/a", "result": "5 (mortality of 90% or above (nearly complete death))"}, {"measurement": "herbicidal effect, A (barnyardgrass)", "setting": "[17]; dose 0.64 g/a", "result": "5 (mortality of 90% or above (nearly complete death))"}, {"measurement": "herbicidal effect, A (barnyardgrass)", "setting": "[17]; dose 2.52 g/a", "result": "5 (mortality of 90% or above (nearly complete death))"}, {"measurement": "B: bulrush, herbicidal effect (evaluation scale 0-5)", "setting": "[18]", "result": "5 (mortality of 90% or above (nearly complete death))"}, {"measurement": "A: barnyardgrass, herbicidal effect (evaluation scale 0-5)", "setting": "[19]", "result": "5 (mortality of 90% or above (nearly complete death))"}, {"measurement": "C: ducksalad, herbicidal effect (evaluation scale 0-5)", "setting": "[20]", "result": "4 (mortality of at least 70% and less than 90%)"}, {"measurement": "herbicidal effect, A (barnyardgrass)", "setting": "[21]; dose 0.16 g/a", "result": "0 (mortality of less than 5% (almost ineffective))"}, {"measurement": "herbicidal effect, A (barnyardgrass)", "setting": "[21]; dose 0.64 g/a", "result": "3 (mortality of at least 40% and less than 70%)"}, {"measurement": "herbicidal effect, A (barnyardgrass)", "setting": "[21]; dose 2.52 g/a", "result": "5 (mortality of 90% or above (nearly complete death))"}]}
